Test results as given in patent US20250345351A1, “OLIGOSACCHARIDE COMPOSITIONS AND METHODS OF USE” (DSM NUTRITIONAL PRODUCTS, LLC, priority 2020, published 2025).

Experiments:
[1] = tested on: fecal microbiome of healthy subjects; test: Ex vivo fermentation in the presence of mesalamine: 16S rRNA amplicon sequencing, Bray-Curtis dissimilarity (Example 23); assay type: cell-based, human; conditions: all 5-ASA concentrations tested; replicate sequencing dissimilarity 0.06 (S.D. 0.03)
Procedure: (§1) 5-aminosalicilic acids (5-ASA), such as mesalamine, are standard-of-care compounds for the treatment of patients with mild-to-moderate ulcerative colitis. The ability of the selected oligosaccharide composition to support the growth of microbial taxa in the presence of mesaline was determined. Fecal samples from ten healthy subjects were incubated anaerobically in supplemented Clostridium minimal medium without (negative control) or with the selected oligosaccharide composition. Samples with the selected oligosaccharide composition were also incubated with 0.0, 0.5, 2, 8, 32, 125, or 500 μM mesalamine. Each fecal sample incubation was performed with three biological replicates. After incubation, samples were sedimented by centrifugation and culture supernatants were collected for SCFA quantification by GC-FID.
To understand if mesalamine influenced understand the shifts in taxonomic composition produced by incubation with the selected oligosaccharide composition, the fecal samples were characterized by 16S rRNA amplicon seuquencing. Genomic DNA was extracted from fecal samples using DNeasy PowerSoil extraction plates (Qiagen) and quantified using the Quant-iT PicoGreen dsDNA assay (Invitrogen). 16S rRNA libraries were prepared by PCR amplification with the 515F/806R primer set before sequencing on the Illumina NextSeq platform to at least 25 thousand reads. […]

[2] = tested on: fecal samples from ten healthy subjects; test: Ex vivo fermentation of the selected oligosaccharide composition in the presence of mesalamine: SCFA by GC-FID (Example 23); assay type: cell-based, human; conditions: 0.5, 2, 8, 32, 125, or 500 μM mesalamine with the composition
Procedure: as §1, with “mesaline was” left out

Compound: Nc1ccc(O)c(C(=O)O)c1 [mesalamine]
- mean Bray-Curtis dissimilarity to samples incubated with the composition and without mesalamine [1]: 0.06 (S.D. 0.02)
- effect on SCFA production by the selected oligosaccharide composition [2]: none of the samples incubated with mesalamine showed any significant differences in SCFA production
